The record followed here is the supplement of paper PMC11127212.

The nature of data set [1]: collision cross section (TWIMS, N2) of ion [M+H-H2O]+; higher = larger gas-phase ion cross section. The note with it: ionization: ESI positive; LC: HILIC, pH 3.0 ammonium formate. The method, then:
(§1)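 Reference standards (20-100 uM) were separated by HILIC UPLC (BEH HILIC, 45 °C): acidic pH 3.0 ammonium formate/formic acid for ESI+ and basic pH 9.0 ammonium acetate/ammonia for ESI-. They were analysed on a Synapt G2-Si traveling-wave IMS-QTOF with nitrogen drift gas (WH 30 V; WV 800 m/s in ESI+ and 1000 m/s in ESI-). CCS (TWCCSN2, Å2) was calibrated with Major Mix IMS/TOF and LockCCS leucine enkephalin; inter-day RSD was <1%.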

The nature of data set [2]: collision cross section (TWIMS, N2) of ion [M-H]-; higher = larger gas-phase ion cross section. The note with it: ionization: ESI negative; LC: HILIC, pH 9.0 ammonium acetate. How it is done: (§2)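 Reference standards (20-100 uM) were separated by HILIC UPLC (BEH HILIC, 45 °C): acidic pH 3.0 ammonium formate/formic acid for ESI+ and basic pH 9.0 ammonium acetate/ammonia for ESI-. They were analysed on a Synapt G2-Si traveling-wave IMS-QTOF with nitrogen drift gas (WH 30 V; WV 800 m/s in ESI+ and 1000 m/s in ESI-).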

Data set [3] can be described thus: retention time on BEH HILIC column (20 min gradient, 0.4 mL/min); higher = later elution. The conditions noted are these: LC: HILIC. How it is done:
as §2

Data set [4] is described as follows: collision cross section (TWIMS, N2) of ion [M+H]+; higher = larger gas-phase ion cross section. The conditions noted are these: ionization: ESI positive; LC: HILIC, pH 3.0 ammonium formate. The method, then:
as §2

Data set [5] is described as follows: collision cross section (TWIMS, N2) of ion [M+Na]+; higher = larger gas-phase ion cross section. The conditions noted are these: ionization: ESI positive; LC: HILIC, pH 3.0 ammonium formate. How it is done:
as §1

Where [6] appears, read: ionization: ESI negative, pH 9.0 ammonium acetate.
The mark [7] stands for this setting: ionization: ESI positive, pH 3.0 ammonium formate.

Take `Nc1c(O)cccc1C(=O)O` [3-hydroxyanthranilic acid]: the collision cross section is on record as 121.78 Å² in data set [1] and 126.47 Å² in data set [2]. Moreover, the “retention time on BEH HILIC column” value in data set [3] (setting [6]) came to 1.12 min; in data set [3] (setting [7]), 0.9 min.
For `O=C(O)c1ccc(O)cc1` [4-hydroxybenzoic acid], in that order: 124.91 Å², 123.01 Å², 0.67 min and 0.73 min.
For `N=C(NCCC[C@H](N)C(=O)O)N[C@@H](CC(=O)O)C(=O)O` [Arginosuccinic acid], in that order: 160.05 Å², 164.65 Å², 12.7 min and 11.2 min.
For the molecule `NCCC(=O)N[C@@H](Cc1cnc[nH]1)C(=O)O` [Carnosine], the collision cross section in data set [4] was found to be 151.65 Å²; in data set [5] it was 152.28 Å²; in data set [2], 154.88 Å². Further, the “retention time on BEH HILIC column” value came out at 11.7 min in data set [3] (setting [6]) and 11.8 min in data set [3] (setting [7]).
For `C/C(=C/C(=O)O)C(=O)O` [Citraconic acid], the collision cross section amounted to 124.18 Å² in data set [1] and 120.54 Å² in data set [2]. The “retention time on BEH HILIC column” value in data set [3] (setting [6]) and in data set [3] (setting [7]) was 0.99 min each time.
Regarding `CN(CC(=O)O)C(=N)N` [Creatine], the collision cross section in data set [4] turned out to be 122.23 Å²; in data set [1] it was 122.05 Å². Moreover, the “retention time on BEH HILIC column” value in data set [3] (setting [7]) was found to be 7.83 min.
On to `CN1CC(=O)NC1=N` [Creatinine], for which the collision cross section in data set [4] was 120.17 Å²; in data set [5] it was 129.07 Å²; in data set [2] it was 120.56 Å². In addition, the entries for the “retention time on BEH HILIC column” value in data set [3] (setting [6]) and in data set [3] (setting [7]) were 1.98 min and 2.79 min, respectively.
In the case of `CNC[C@H](O)c1ccc(O)c(O)c1` [Epinephrine], the collision cross section amounted to 136.45 Å² in data set [1] and 140.21 Å² in data set [2]. For the same molecule, the “retention time on BEH HILIC column” value was determined as 5.61 min in data set [3] (setting [6]) and 5.91 min in data set [3] (setting [7]).
Turning to `Nc1nc(=O)c2nc(CNc3ccc(C(=O)N[C@@H](CCC(=O)O)C(=O)O)cc3)cnc2[nH]1` [Folic acid], the collision cross section in data set [4] is on record as 196.77 Å²; in data set [5], 201.44 Å²; in data set [2], 187.54 Å². Besides, the “retention time on BEH HILIC column” value in data set [3] (setting [6]) stood at 11.4 min; in data set [3] (setting [7]), 6.7 min.
As for `O=C(O)c1cc(O)ccc1O` [Gentisic acid], the collision cross section in data set [1] was 126.57 Å²; in data set [2], 126.41 Å². Besides, the “retention time on BEH HILIC column” value in data set [3] (setting [6]) was 1.41 min; in data set [3] (setting [7]) it was 1.38 min.
On to `O=C(O)[C@H]1O[C@H](O)[C@H](O)[C@@H](O)[C@@H]1O` [Glucuronic acid], for which the collision cross section in data set [1] worked out at 134.39 Å²; in data set [2] it was 129.91 Å². Moreover, the figures for the “retention time on BEH HILIC column” value in data set [3] (setting [6]) and in data set [3] (setting [7]) were 8.46 min and 0.72 min, respectively.
As for `O=C(O)CNC(=O)c1ccccc1` [Hippuric acid], the collision cross section in data set [4] was found to be 138.49 Å²; in data set [5], 146.37 Å²; in data set [2] it was 139.07 Å². Moreover, the “retention time on BEH HILIC column” value is 2.21 min in data set [3] (setting [6]) and 2.16 min in data set [3] (setting [7]).
`O=C(O)[C@@H]1C[C@@H](O)CN1` [Hydroxyproline]: the collision cross section is listed as 125.85 Å² in data set [4], 123.91 Å² in data set [1] and 126.62 Å² in data set [2]. Also, the “retention time on BEH HILIC column” value in data set [3] (setting [6]) turned out to be 7.55 min; in data set [3] (setting [7]), 7.47 min.
For the molecule `OC[C@H]1O[C@@H](n2cnc3c(O)ncnc32)[C@H](O)[C@@H]1O` [Inosine], the collision cross section in data set [4] was determined as 155.86 Å²; in data set [5], 166.42 Å²; in data set [2], 159.47 Å². Moreover, the entries for the “retention time on BEH HILIC column” value in data set [3] (setting [6]) and in data set [3] (setting [7]) were 3.4 min and 2.31 min, respectively.
For `CSCC[C@H](N)C(=O)O` [L-methionine], the collision cross section in data set [4] turned out to be 131.48 Å²; in data set [5], 135.16 Å²; in data set [2] it was 132.57 Å². The figures for the “retention time on BEH HILIC column” value in data set [3] (setting [6]) and in data set [3] (setting [7]) were 6.8 min and 6.59 min, respectively.
For `O=C(O)[C@@H]1CCCN1` [L-proline], the collision cross section in data set [4] is reported as 123.7 Å²; in data set [5], 130.65 Å²; in data set [2], 116.46 Å². Moreover, the “retention time on BEH HILIC column” value in data set [3] (setting [6]) turned out to be 7.23 min; in data set [3] (setting [7]), 7.22 min.
For `N[C@@H](Cc1ccc(O)cc1)C(=O)O` [L-tyrosine], in that order: 141.09 Å², 143.2 Å², 141.65 Å², 6.79 min and 6.67 min.
In data set [1], `O=C(O)/C=C\C(=O)O` [Maleic acid] yielded a collision cross section of 114.1 Å². Moreover, the “retention time on BEH HILIC column” value in data set [3] (setting [7]) was determined as 0.82 min.
As to `O=C(O)c1cccnc1` [Nicotinic acid], the collision cross section stood at 122.92 Å² in data set [4], 128.31 Å² in data set [5] and 121.16 Å² in data set [2]. The “retention time on BEH HILIC column” value in data set [3] (setting [6]) and in data set [3] (setting [7]) was 2.74 min throughout.
`CCCCCC/C=C\CCCCCCCC(=O)O` [Palmitoleic acid]: the collision cross section in data set [4] is recorded as 175.21 Å²; in data set [1], 161.08 Å²; in data set [2] it was 173.54 Å². Moreover, the “retention time on BEH HILIC column” value was determined as 1.03 min in data set [3] (setting [6]) and 0.79 min in data set [3] (setting [7]).
`O=C(O)CNC(=O)Cc1ccccc1` [Phenylacetylglycine]: the values for the collision cross section in data set [4], in data set [1] and in data set [2] were 142.08 Å², 138.2 Å² and 146.28 Å², respectively. Moreover, the “retention time on BEH HILIC column” value in data set [3] (setting [6]) was found to be 2.16 min; in data set [3] (setting [7]), 2.11 min.
Regarding `O=C(O)c1cccnc1C(=O)O` [Quinolinic acid], the collision cross section was 130.12 Å² in data set [1] and 128.56 Å² in data set [2]. For the same molecule, the results for the “retention time on BEH HILIC column” value in data set [3] (setting [6]) and in data set [3] (setting [7]) were 12.7 min and 2.56 min, respectively.
For `COc1cc([C@H](O)C(=O)O)ccc1O` [Vanillylmandelic acid], in that order: 135.63 Å², 144.75 Å², 4.41 min and 2.72 min.
Take `Nc1nc2c(ncn2[C@@H]2O[C@@H]3COP(=O)(O)O[C@H]3[C@H]2O)c(=O)[nH]1` [cGMP]: the figures for the collision cross section in data set [4], in data set [5] and in data set [2] were 171.22 Å², 178.55 Å² and 172.34 Å², respectively. Also, the figures for the “retention time on BEH HILIC column” value in data set [3] (setting [6]) and in data set [3] (setting [7]) were 6.9 min and 6.92 min, respectively.
